Format in all cases: cell-based, human
In assay [1] the test system is GPR4 mRNA. The assay is described as follows: RT-PCR of GPR4 mRNA in HBMEC. The settings on record: within 2 hours, TNF-α 100 U/ml or H2O2.
For assay [2], the system named is GPR4 mRNA. In words: RT-PCR of GPR4 mRNA in HMEC. The settings on record: within 2 hours, TNF-α 100 U/ml or H2O2.
Assay [3] has as its system monocyte transmigration across HBMEC. In words: Monocyte transmigration assay across HBMEC.

For `OO` [H2O2], the “GPR4 mRNA over control” value in the assay with GPR4 mRNA [1] was “increased GPR4 mRNA over control”; in the assay with GPR4 mRNA [2], “not HMEC”.
For the molecule C3 transferase, in assay [3], the “effect on basal monocyte transmigration” value is listed as “did not change basal monocyte transmigration” and the “inhibition of LPC-induced monocyte transmigration” value is on record as “about 65%”.
With TNF-α, the “GPR4 mRNA over control” value in the assay on GPR4 mRNA [1] is “increased GPR4 mRNA over control”; in the assay with GPR4 mRNA [2], “not HMEC”.

Source of the values: patent US20060067931A1, “Receptor for lysophosphatidylcholine in vascular endothelial cells and use thereof” (priority 2004, published 2006).
